Tests used:
HCV NS5B = molecular target: T1, HCV NS5B (Hepatitis C virus genotype 1b, UniProt Q9WMX2); assay: HCV NS5B RdRp enzyme assay (standard or modified); format: biochemical; settings: HCV NS5B RdRp genotype 1b enzyme; standard or modified assay not stated
T1 construct: The protein was expressed with an 18 amino acid C-terminal truncation to enhance the solubility; made in house; host or cells: E. coli BL21(DE3), pET21a
Method: HCV NS5B RdRp cloning, expression, and purification. The cDNA encoding the NS5B protein of HCV, genotype 1b, was cloned into the pET21a expression vector. The protein was expressed with an 18 amino acid C-terminal truncation to enhance the solubility. The E. coli competent cell line BL21(DE3) was used for expression of the protein. Cultures were grown at 37° C. for ˜4 hours until the cultures reached an optical density of 2.0 at 600 nm. The cultures were cooled to 20° C. and induced with 1 mM IPTG. Fresh ampicillin was added to a final concentration of 50 μg/ml and the cells were grown overnight at 20° C.
Cell pellets (3 L) were lysed for purification to yield 15-24 mgs of purified NS5B. The lysis buffer consisted of 20 mM Tris-HCl, pH 7.4, 500 mM NaCl, 0.5% triton X-100, 1 mM DTT, 1 mM EDTA, 20% glycerol, 0.5 mg/ml lysozyme, 10 mM MgCl2, 15 ug/ml deoxyribonuclease I, and Complete TM protease inhibitor tablets (Roche). After addition of the lysis buffer, frozen cell pellets were resuspended using a tissue homogenizer. To reduce the viscosity of the sample, aliquots of the lysate were sonicated on ice using a microtip attached to a Branson sonicator. The sonicated lysate was centrifuged at 100,000×g for 1 hr at 4° C. and filtered through a 0.2 μm filter unit (Corning).
The protein was purified using two sequential chromatography steps: Heparin sepharose CL-6B and polyU sepharose 4B (Pharmacia). The chromatography buffers were identical to the lysis buffer but contained no lysozyme, deoxyribonuclease I, MgCl2 or protease inhibitor and the NaCl concentration of the buffer was adjusted according to the requirements for charging the protein onto the column. Each column was eluted with a NaCl gradient which varied in length from 5-50 column volumes depending on the column type. After the final chromatography step, the resulting purity of the enzyme is >90% based on SDS-PAGE analysis. The enzyme was aliquoted and stored at −80° C.
Standard HCV NS5B RdRp enzyme assay. HCV RdRp genotype 1b assays were run in a final volume of 60 μl in 96 well plates (Corning 3600). The assay buffer is composed of 20 mM Hepes, pH 7.5, 2.5 mM KCl, 2.5 mM MgCl2, 1 mM DTT, 1.6 U RNAse inhibitor (Promega N2515), 0.01 mg/ml BSA (Sigma B6917), and 2% glycerol. All compounds were serially diluted (3-fold) in DMSO and diluted further in water such that the final concentration of DMSO in the assay was 2%. HCV RdRp genotype 1b enzyme was used at a final concentration of 28 nM. A polyA template was used at 6 nM, and a biotinylated oligo-dT12 primer was used at 180 nM final concentration. Template was obtained commercially (Amersham 27-4110). Biotinylated primer was prepared by Sigma Genosys. 3H-UTP was used at 0.6 μCi (0.29 μM total UTP). Reactions were initiated by the addition of enzyme, incubated at 30° C. for 60 min, and stopped by adding 25 μl of 50 mM EDTA containing SPA beads (4 μg/μl, Amersham RPNQ 0007). Plates were read on a Packard Top Count NXT after >1 hr incubation at room temperature.
Modified HCV NS5B RdRp enzyme assay. A modified enzyme assay was performed essentially as described for the standard enzyme assay except for the following: The biotinylated oligo dT12 primer was precaptured on streptavidin-coated SPA beads by mixing primer and beads in assay buffer and incubating at room temperature for one hour. Unbound primer was removed after centrifugation. The primer-bound beads were resuspended in 20 mM Hepes buffer, pH 7.5 and used in the assay at final concentrations of 20 nM primer and 0.67 μg/μl beads. Order of addition in the assay: enzyme (1.75 nM) was added to diluted compound followed by the addition of a mixture of template (0.36 nM), 3H-UTP (0.6 μCi, 0.29 μM), and primer-bound beads, to initiate the reaction; concentrations given are final. Reactions were allowed to proceed for 4 hours at 30° C.
IC50 values for compounds were determined using seven different [I]. […]

HCV replicon cells = assay: HCV replicon FRET / luciferase assay; format: cell-based; settings: Hepatitis C virus, 50% reduction in FRET or luciferase activity
Method: FRET Assay Preparation. The HCV FRET screening assay was performed in 96-well cell culture plates. The FRET peptide (Anaspec, Inc.) (Taliani et al., Anal. Biochem. 1996, 240, 60-67) contains a fluorescence donor, EDANS, near one end of the peptide and an acceptor, DABCYL, near the other end. The fluorescence of the peptide is quenched by […] resonance energy transfer (RET) between the donor and the acceptor, but as the NS3 protease cleaves the peptide the products are released from RET quenching and the fluorescence of the donor becomes apparent. The assay reagent was made as follows: 5× cell Luciferase cell culture lysis reagent from Promega (#E153A) diluted to 1× with dH2O, NaCl added to 150 mM final, the FRET peptide diluted to 20 μM final from a 2 mM stock.
To prepare plates, HCV replicon cells, with or without a Renilla luciferase reporter gene, were trypsinized and plated in a 96-well plate with titrated test compounds added in columns 3 through 12; columns 1 and 2 contained a control compound (HCV control inhibitor), and the bottom row contained cells with DMSO only. The plates were then placed in a CO2 incubator at 37° C.
Assays. Subsequent to addition of the test compounds described above (FRET Assay Preparation), at various times the plate was removed and Alamar blue solution (Trek Diagnostics, #00-100) was added to measure cellular toxicity. After reading in a Cytoflour 4000 instrument (PE Biosystems), plates were rinsed with PBS and then used for FRET assay by the addition of 30 ul of the FRET peptide assay reagent described above (FRET Assay Preparation) per well. The plate was then placed into the Cytoflour 4000 instrument which had been set to 340 excite/490 emission, automatic mode for up to 20 cycles and the plate read in a kinetic mode. Typically, the signal to noise using an endpoint analysis after the reads was at least three-fold. Alternatively, after Alamar blue reading, plates were rinsed with PBS, then used for luciferase assay using the Promega Dual-Glo Luciferase Assay System or the Promega EnduRen Live Cell Substrate assay.
Compound analysis was performed by quantification of the relative HCV replicon inhibition and the relative cytotoxicity values. To calculate cytoxicity values, the average Alamar Blue fluorescence signals from the control wells were set as 100% non-toxic. The individual signals in each of the compound test wells were then divided by the average control signal and multiplied by 100% to determine […]. To calculate the HCV replicon inhibition values, an average background value was obtained from the two wells containing the highest amount of HCV control inhibitor at the end of the assay period. These numbers were similar to those obtained from naïve Huh-7 cells. The background numbers were then subtracted from the average signal obtained from the control wells and this number was used as 100% activity. The individual signals in each of the compound test wells were then divided by the averaged control values after background subtraction and multiplied by 100% to determine percent activity. EC50 values were calculated as the concentration which caused a 50% reduction in FRET or luciferase activity. The two numbers generated for the compound plate, percent cytoxicity and percent activity, were used to determine compounds of interest for further analysis.

T1 sequence (Q9WMX2 2420-2992): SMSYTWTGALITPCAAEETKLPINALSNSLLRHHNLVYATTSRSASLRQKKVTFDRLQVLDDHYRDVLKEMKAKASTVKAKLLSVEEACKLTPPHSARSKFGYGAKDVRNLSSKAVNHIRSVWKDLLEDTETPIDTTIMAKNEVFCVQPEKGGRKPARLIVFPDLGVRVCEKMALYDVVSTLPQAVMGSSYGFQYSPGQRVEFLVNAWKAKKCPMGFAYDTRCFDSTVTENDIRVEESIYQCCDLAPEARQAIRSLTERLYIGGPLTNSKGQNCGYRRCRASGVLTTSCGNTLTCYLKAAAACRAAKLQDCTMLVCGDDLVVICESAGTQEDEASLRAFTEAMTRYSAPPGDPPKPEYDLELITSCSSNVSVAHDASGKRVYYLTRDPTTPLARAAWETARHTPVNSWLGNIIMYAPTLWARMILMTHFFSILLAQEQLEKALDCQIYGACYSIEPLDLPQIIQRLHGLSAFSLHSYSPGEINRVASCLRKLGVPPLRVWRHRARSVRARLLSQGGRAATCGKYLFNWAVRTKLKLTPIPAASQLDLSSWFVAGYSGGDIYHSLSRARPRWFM

Structure (SMILES) | IC50 (HCV NS5B) | EC50 (HCV replicon cells)
COc1ccc2c(c1)C1CC1(C(=O)N1CCC[C@H]3CN(Cc4ccccc4)C[C@H]31)Cn1c-2c(C2CCCCC2)c2ccc(C(=O)NS(N)(=O)=O)cc21 (stereo partly shown) | 4.58 to 500 nM | 4.58 to 500 nM
COc1ccc2c(c1)C1CC1(C(=O)N1C[C@H]3CNC[C@H]3C1)Cn1c-2c(C2CCCCC2)c2ccc(C(=O)NS(=O)(=O)N(C)C)cc21 (stereo partly shown) | 4.58 to 500 nM | 4.58 to 500 nM
COc1ccc2c(c1)C1CC1(C(=O)N1CCN3CCC[C@@H]3C1)Cn1c-2c(C2CCCCC2)c2ccc(C(=O)NS(=O)(=O)N3CCOCC3)cc21 (stereo partly shown) | 4.58 to 500 nM | 4.58 to 500 nM
COc1ccc2c(c1)C1CC1(C(=O)N1CC3CN(C(=O)C4CC4)CC3C1)Cn1c-2c(C2CCCCC2)c2ccc(C(=O)NS(N)(=O)=O)cc21 (stereo not shown) | 4.58 to 500 nM | –
COc1ccc2c(c1)C1CC1(C(=O)N1CCN3CCC[C@H]3C1)Cn1c-2c(C2CCCCC2)c2ccc(C(=O)NS(=O)(=O)C3CC3)cc21 (stereo partly shown) | 4.58 to 500 nM | 4.58 to 500 nM
COc1ccc2c(c1)C1CC1(C(=O)N1CCN3CCCCC3C1)Cn1c-2c(C2CCCCC2)c2ccc(C(=O)NS(=O)(=O)N(C)C)cc21 (stereo not shown) | 4.58 to 500 nM | 4.58 to 500 nM
COc1ccc2c(c1)C1CC1(C(=O)N1CCN3CCC[C@H]3C1)Cn1c-2c(C2CCCCC2)c2ccc(C(=O)NS(C)(=O)=O)cc21 (stereo partly shown) | 4.58 to 500 nM | 4.58 to 500 nM
COc1ccc2c(c1)C1CC1(C(=O)N1CCN3CCCC3C1)Cn1c-2c(C2CCCCC2)c2ccc(C(=O)NS(N)(=O)=O)cc21 (stereo not shown) | 4.58 to 500 nM | 4.58 to 500 nM
COc1ccc2c(c1)C1CC1(C(=O)N1CCCC3CN(Cc4ccccc4)CC31)Cn1c-2c(C2CCCCC2)c2ccc(C(=O)NS(=O)(=O)N(C)C)cc21 (stereo not shown) | 4.58 to 500 nM | 4.58 to 500 nM
COc1ccc2c(c1)C1CC1(C(=O)N1CCN3CCC[C@@H]3C1)Cn1c-2c(C2CCCCC2)c2ccc(C(=O)NS(=O)(=O)N3CCC3)cc21 (stereo partly shown) | 4.58 to 500 nM | 4.58 to 500 nM
COc1ccc2c(c1)C1CC1(C(=O)N1CCN3CCCC3C1C)Cn1c-2c(C2CCCCC2)c2ccc(C(=O)NS(=O)(=O)N(C)C)cc21 (stereo not shown) | 4.58 to 500 nM | 4.58 to 500 nM
COc1ccc2c(c1)C1CC1(C(=O)N1CCN3CCCC3C1)Cn1c-2c(C2CCCCC2)c2ccc(C(=O)NS(=O)(=O)C(C)C)cc21 (stereo not shown) | 4.58 to 500 nM | 4.58 to 500 nM
COc1ccc2c(c1)C1CC1(C(=O)N1CC3CN(C(=O)OC(C)(C)C)CC3C1)Cn1c-2c(C2CCCCC2)c2ccc(C(=O)NS(=O)(=O)N(C)C)cc21 (stereo not shown) | 4.58 to 500 nM | 4.58 to 500 nM
